Laboratory results from ChEMBL document CHEMBL1201862, “PubChem BioAssay data set” (2004).
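Cultured in 96-well plates, cells were exposed to test compound for 48 hours across five concentrations. GI50 is the concentration that inhibits growth by half.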 Activity calls are given as the source filed them. No stated cut-off is given here; in the data, active = GI50 up to about 1.1 µM and inactive = higher.

What was measured:
Assay in all cases: NCI-60 cell line screen, 48 h
M14 = system: M14
SN12C = system: SN12C
SK-MEL-2 = system: SK-MEL-2
HCT-15 = system: HCT-15
SK-MEL-28 = system: SK-MEL-28
786-0 = system: 786-0
MDA-MB-231 = system: MDA-MB-231
HT-29 = system: HT-29
SW-620 = system: SW-620
SK-MEL-5 = system: SK-MEL-5
K562 = system: K562
Hs-578T = system: Hs-578T
NCI/ADR-RES = system: NCI/ADR-RES
SF-295 = system: SF-295
DU-145 = system: DU-145
EKVX = system: EKVX
SK-OV-3 = system: SK-OV-3
MOLT-4 = system: MOLT-4
HL-60 = system: HL-60
HOP-62 = system: HOP-62

Compound	GI50 (M14)	GI50 (SN12C)	GI50 (SK-MEL-2)	GI50 (HCT-15)	GI50 (SK-MEL-28)	GI50 (786-0)	GI50 (MDA-MB-231)	GI50 (HT-29)	GI50 (SW-620)	GI50 (SK-MEL-5)	GI50 (K562)	GI50 (Hs-578T)	GI50 (NCI/ADR-RES)	GI50 (SF-295)	GI50 (DU-145)	GI50 (EKVX)	GI50 (SK-OV-3)	GI50 (MOLT-4)	GI50 (HL-60)	GI50 (HOP-62)
COC1=CC(=O)c2c(c(-c3nc(C)cs3)cn2C)C1=O	2.13 µM (inactive)	5.79 µM (inactive)	3.03 µM (inactive)	1.28 µM	3.72 µM (inactive)	18.1 µM (inactive)	15.7 µM (inactive)	4.98 µM (inactive)	3.24 µM (inactive)	1.2 µM (inactive)	2.62 µM (inactive)	2.21 µM (inactive)	4 µM (inactive)	2.88 µM (inactive)	3.76 µM (inactive)	8.65 µM (inactive)	41.2 µM (inactive)	15.2 µM (inactive)	1.46 µM (inactive)	3.05 µM (inactive)
CN(C)CC1(Cc2ccccc2)CCC(Cc2ccccc2)C1=O (stereo not given)	10.1 µM (inactive)	9.77 µM (inactive)	12.2 µM (inactive)	5.21 µM	12.3 µM (inactive)	2.07 µM (inactive)	11.2 µM (inactive)	13 µM (inactive)	3.67 µM (inactive)	13.7 µM (inactive)	2.79 µM (inactive)	15.6 µM (inactive)	9.68 µM (inactive)	16.6 µM (inactive)	14.8 µM (inactive)	17.1 µM (inactive)	21.8 µM (inactive)	2.88 µM (inactive)	3.29 µM (inactive)	18 µM (inactive)
Cc1cnc2nc(-c3ccc(F)cc3)cc(O)c2c1	34.6 µM (inactive)	67.6 µM (inactive)	25.4 µM (inactive)	7.66 µM	> 87.1 µM (inactive)	32.5 µM (inactive)	> 73.1 µM (inactive)	26.4 µM (inactive)	19 µM (inactive)	26.6 µM (inactive)	4.52 µM (inactive)	24.1 µM (inactive)	27.2 µM (inactive)	25.9 µM (inactive)	43 µM (inactive)	30.9 µM (inactive)	21.6 µM (inactive)	34.1 µM (inactive)	3.26 µM (inactive)	37.5 µM (inactive)
COc1cc(C2C3=C(COC3=O)OC(C)(C)Oc3cc4c(cc32)OCO4)cc(OC)c1OC (stereo not given)	0.281 µM (active)	0.466 µM (active)	0.673 µM (active)	0.372 µM	0.296 µM (active)	0.293 µM (active)	0.358 µM (active)	0.258 µM (active)	0.348 µM (active)	0.348 µM (active)	0.353 µM (active)	0.301 µM (active)	0.299 µM (active)	0.222 µM (active)	0.34 µM (active)	0.366 µM (active)	0.476 µM (active)	0.453 µM (active)	0.236 µM (active)	0.509 µM (active)
O=[N+]([O-])c1ccc(Cl)c(/C=N/C23CC4CC(CC(C4)C2)C3)c1	> 6.22 µM (inactive)	> 10 µM (inactive)	> 10 µM (inactive)	> 6.46 µM	> 10 µM (inactive)	> 7.66 µM (inactive)	> 10 µM (inactive)	> 10 µM (inactive)	> 10 µM (inactive)	3.5 µM (inactive)	2.89 µM (inactive)	> 10 µM (inactive)	> 9.1 µM (inactive)	> 10 µM (inactive)	> 10 µM (inactive)	> 10 µM (inactive)	> 10 µM (inactive)	5.18 µM (inactive)	2.05 µM (inactive)	> 10 µM (inactive)
COc1ccc2nc3ccc(OC)cc3c(SCCCl)c2c1	12.3 µM (inactive)	12.2 µM (inactive)	20.7 µM (inactive)	12.7 µM	31.7 µM (inactive)	6.24 µM (inactive)	18.8 µM (inactive)	8.28 µM (inactive)	12.6 µM (inactive)	8.87 µM (inactive)	9.66 µM (inactive)	5.07 µM (inactive)	16.3 µM (inactive)	26.2 µM (inactive)	21 µM (inactive)	> 49.9 µM (inactive)	> 74 µM (inactive)	2.79 µM (inactive)	3.28 µM (inactive)	18.1 µM (inactive)
Nc1nc(N)c2nc(CNc3ccc(C(=O)O)cc3)[nH]c2n1	> 100 µM (inactive)	> 100 µM (inactive)	> 100 µM (inactive)	> 100 µM	> 100 µM (inactive)	> 100 µM (inactive)	> 100 µM (inactive)	> 100 µM (inactive)	> 100 µM (inactive)	> 100 µM (inactive)	> 100 µM (inactive)	> 100 µM (inactive)	> 100 µM (inactive)	> 100 µM (inactive)	> 100 µM (inactive)	> 100 µM (inactive)	> 100 µM (inactive)	> 100 µM (inactive)	> 100 µM (inactive)	> 100 µM (inactive)
CC(C)N(C(C)C)S(=O)(=O)CC12CCC(C/C1=N\O)C2 (stereo not given)	> 100 µM (inactive)	> 100 µM (inactive)	> 100 µM (inactive)	> 100 µM	> 100 µM (inactive)	> 100 µM (inactive)	> 100 µM (inactive)	> 100 µM (inactive)	> 100 µM (inactive)	> 100 µM (inactive)	> 100 µM (inactive)	> 100 µM (inactive)	> 100 µM (inactive)	> 100 µM (inactive)	> 100 µM (inactive)	> 100 µM (inactive)	> 100 µM (inactive)	> 100 µM (inactive)	> 100 µM (inactive)	> 100 µM (inactive)
CC1(C)[C@@H]2CC[C@@]1(C)[C@H](O)[C@@H]2SCc1ccccc1	15 µM (inactive)	17.8 µM (inactive)	18.1 µM (inactive)	14.8 µM	17.5 µM (inactive)	17 µM (inactive)	16.8 µM (inactive)	14.7 µM (inactive)	25.5 µM (inactive)	15.4 µM (inactive)	25.2 µM (inactive)	14.2 µM (inactive)	15.8 µM (inactive)	18.1 µM (inactive)	19.9 µM (inactive)	15.3 µM (inactive)	20.5 µM (inactive)	16.5 µM (inactive)	25.5 µM (inactive)	17.9 µM (inactive)
COc1cc(C(=O)OC2CC34CCNC35CC(OC5(OC)C2O)c2cc3c(cc24)OCO3)ccc1O (stereo not given)	> 100 µM (inactive)	> 100 µM (inactive)	> 100 µM (inactive)	> 100 µM	> 100 µM (inactive)	> 100 µM (inactive)	> 100 µM (inactive)	> 100 µM (inactive)	> 100 µM (inactive)	> 100 µM (inactive)	> 100 µM (inactive)	> 100 µM (inactive)	> 100 µM (inactive)	> 100 µM (inactive)	> 100 µM (inactive)	> 100 µM (inactive)	> 100 µM (inactive)	> 100 µM (inactive)	> 100 µM (inactive)	> 100 µM (inactive)
